In patent US4839155A, “Iodotamoxifen derivatives and use for estrogen receptor-positive breast cancer detection and therapy” (National Research Development Corporation, priority 1986, dated 1989):

How the values were obtained:
MCF-7 cells = assay: MCF-7 cell growth, % of control; assay type: cell-based, human; settings: for activity at 1 µM / activity at 0.1 µM / activity at 0.01 µM: Homo sapiens, MCF7, 37° C., 24 hours, ± standard deviation of four samples, >100 = growth stimulating (estrogenic); for activity at 1 µM: 10^-6 M; for activity at 0.1 µM: 10^-7 M; for activity at 0.01 µM: 10^-8 M; for activity in MCF-7 cell growth tests (in words): evaluation of Table 2, compared with tamoxifen
[1] = target: T1, estrogen receptor (MCF-7 whole cells) (Homo sapiens, UniProt P03372); assay: Relative binding affinity (RBA), MCF-7 whole cell assay, inhibition of (3H)estradiol binding; settings: RBA = [I50](estradiol)/[I50](test compound) × 100; 37° C., 50 minutes, 10^-9 M (3H)estradiol
T1 construct: host or cells: MCF-7 whole cells
T1 sequence (P03372 1-595): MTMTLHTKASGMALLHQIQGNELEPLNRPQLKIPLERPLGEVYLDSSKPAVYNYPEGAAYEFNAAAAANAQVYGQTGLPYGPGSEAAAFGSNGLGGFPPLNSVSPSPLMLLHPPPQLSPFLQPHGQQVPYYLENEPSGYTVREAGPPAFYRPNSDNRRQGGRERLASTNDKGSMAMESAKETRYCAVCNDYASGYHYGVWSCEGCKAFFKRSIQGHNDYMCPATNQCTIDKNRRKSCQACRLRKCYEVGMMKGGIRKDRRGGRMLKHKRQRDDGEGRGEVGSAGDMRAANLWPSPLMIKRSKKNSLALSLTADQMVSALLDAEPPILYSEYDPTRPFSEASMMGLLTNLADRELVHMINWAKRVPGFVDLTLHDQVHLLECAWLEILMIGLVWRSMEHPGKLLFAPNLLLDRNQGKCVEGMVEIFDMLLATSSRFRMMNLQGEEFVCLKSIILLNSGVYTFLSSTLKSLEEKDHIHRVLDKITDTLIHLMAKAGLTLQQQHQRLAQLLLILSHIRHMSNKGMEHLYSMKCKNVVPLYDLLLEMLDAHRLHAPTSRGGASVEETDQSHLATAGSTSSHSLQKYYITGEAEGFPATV
Experimental: A whole cell assay was then performed using the MCF-7 human breast cancer cell line obtained from the Michigan Cancer Foundation, Detroit, USA. MCF-7 cells were maintained at 37° C. in monolayer culture in closed T-25 dishes in mininal essential medium (MEM) supplemented with L-glutamine (0.6 mg/ml), gentamycin (40 micrograms/ml). penicillin (100 U/ml) streptomycin (100 micrograms/ml) and 10% inactivated fetal calf serum (inactivated for 1 hour at 56° C.). The MCF-7 cells were incubated at 37° C. for 50 minutes with 10^-9 M (^3 H)estradiol in the absence or presence of increasing amounts (10^-10 -10^-5 M) of the test compound or unlabelled estradiol (control). Bound compounds were then extracted with ethanol, and the amounts of estrogen receptor bound (^3 H) estradiol were measured. The RBA values were calculated as for the rat uterine cytosol.
(§1) The higher the values in the rat uterine cytosol test the greater the antiestrogenic effect. In the whole cell test, on the other hand, the estrogen receptors are localised in the cell nucleus and therefore bound to DNA. In the whole cell test, a low value indicating poor binding to cell nucleus ER and consequently low estrogenicity, can be considered favorable.

[2] = target: T2, estrogen receptor (rat uterine cytosol) (Rattus norvegicus, UniProt P06211); assay: Relative binding affinity (RBA), rat uterine cytosol, inhibition of (3H)estradiol binding; settings: RBA = [I50](estradiol)/[I50](test compound) × 100; 18° C., 30 minutes, 5×10^-9 M (3H)estradiol
T2 construct: from tissue; host or cells: immature rat uterus, cytosol
T2 sequence (P06211 1-600): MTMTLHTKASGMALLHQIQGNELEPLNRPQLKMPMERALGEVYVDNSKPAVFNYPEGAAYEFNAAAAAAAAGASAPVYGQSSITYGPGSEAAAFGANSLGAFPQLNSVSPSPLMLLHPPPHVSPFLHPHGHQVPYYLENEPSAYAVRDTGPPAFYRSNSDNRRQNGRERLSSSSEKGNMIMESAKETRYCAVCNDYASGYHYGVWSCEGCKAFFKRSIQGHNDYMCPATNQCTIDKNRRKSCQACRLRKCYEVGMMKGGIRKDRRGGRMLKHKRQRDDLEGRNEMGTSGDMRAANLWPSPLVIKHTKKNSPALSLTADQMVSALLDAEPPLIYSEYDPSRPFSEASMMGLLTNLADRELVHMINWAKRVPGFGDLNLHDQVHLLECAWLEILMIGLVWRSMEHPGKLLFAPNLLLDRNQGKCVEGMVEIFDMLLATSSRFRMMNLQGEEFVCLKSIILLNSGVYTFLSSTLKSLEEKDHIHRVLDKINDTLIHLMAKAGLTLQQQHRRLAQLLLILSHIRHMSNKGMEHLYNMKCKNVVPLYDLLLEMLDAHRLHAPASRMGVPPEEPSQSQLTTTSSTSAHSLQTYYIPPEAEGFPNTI
Experimental: Immature rat uterine cytosol was incubated at 18° C. for 30 minutes with 5×10^-9 M (^3 H)estradiol in the absence and presence of increasing amounts (10^-9 -10^-5 M) of the test compound or unlabelled estradiol (control). Unbound compounds were then removed with dextran-coated charcoal, and the amounts of estrogen receptor-bound (^3 H)estradiol were measured.
as §1

estrogen receptor [3] = settings: prior art; cited from earlier work
[4] = in vivo; prior art; cited from earlier work
[5] = tested on: estrogen receptor-positive breast cancer; assay: Potency in relation to estrogen receptor-positive breast cancer (summary statement); settings: compared with tamoxifen
[6] = cited from earlier work
estrogen receptor (ER) = settings: prior art; cited from earlier work
rat uterine weight = settings: compared with tamoxifen; K. E. Allen et al. (1980); cited from earlier work
estrogen receptor [7] = settings: K. E. Allen et al. (1980); cited from earlier work

CC/C(=C(/c1ccc(OCCN(C)C)cc1)c1cccc(I)c1)c1ccccc1 [3-Iodotamoxifen, E 1-[4-(2-dimethylaminoethoxy)phenyl]-1-(3-iodophenyl)-2-phenyl-1-butene]
activity at 1 µM (MCF-7 cells): 27 ± 5%
activity at 0.1 µM (MCF-7 cells): 68 ± 2%
activity at 0.01 µM (MCF-7 cells): 100 ± 8%
activity in MCF-7 cell growth tests (in words) (MCF-7 cells): about as active as tamoxifen

CC/C(=C(\c1ccc(Br)cc1)c1ccc(OCCN(C)C)cc1)c1ccccc1 [4-Bromotamoxifen, E 1-[4-(2-dimethylaminoethoxy)phenyl]-1-(4-bromophenyl)-2-phenyl-1-butene]
RBA (relative binding affinity), MCF-7 whole cells [1]: 0.02
RBA (relative binding affinity), Rat uterine cytosol [2]: 3
activity at 1 µM (MCF-7 cells): 63 ± 8%
activity at 0.1 µM (MCF-7 cells): 101 ± 8%
activity at 0.01 µM (MCF-7 cells): 130 ± 10%
activity in MCF-7 cell growth tests (in words) (MCF-7 cells): less active than tamoxifen

CC/C(=C(\c1ccc(O)cc1)c1ccc(OCCN(C)C)cc1)c1ccccc1 [4-Hydroxytamoxifen]
anti-estrogen potency in vitro (estrogen receptor [3]): potent anti-estrogen
glucuronidation of the hydroxyl group followed by excretion [4]: rapid glucuronidation of the hydroxyl group followed by excretion

CC/C(=C(\c1ccc(I)cc1)c1ccc(OCCN(C)C)cc1)c1ccccc1 [4-Iodotamoxifen, E 1-[4-(2-dimethylaminoethoxy)phenyl]-1-(4-iodophenyl)-2-phenyl-1-butene]
RBA (relative binding affinity), MCF-7 whole cells [1]: 0.05
RBA (relative binding affinity), Rat uterine cytosol [2]: 30
activity at 1 µM (MCF-7 cells): 26 ± 2%
activity at 0.1 µM (MCF-7 cells): 42 ± 6%
activity at 0.01 µM (MCF-7 cells): 115 ± 6%
potency in relation to estrogen receptor-positive breast cancer [5]: greater potency than tamoxifen

CC/C(=C(\c1ccc(OC)cc1)c1ccc(OCCN(C)C)cc1)c1ccccc1 [4-methoxy derivative]
activity in other tests ([6]; compared with tamoxifen, K. E. Allen et al. (1980)): about the same as tamoxifen

CC/C(=C(\c1ccc(I)cc1)c1ccc(OCCN(CC)CC)cc1)c1ccccc1 [E-1-[4-(2-Diethylaminoethoxy)phenyl]-1-(4-iodophenyl)-2-phenyl-1-butene]
activity at 1 µM (MCF-7 cells): 23 ± 2%
activity at 0.1 µM (MCF-7 cells): 35 ± 5%
activity at 0.01 µM (MCF-7 cells): 101 ± 7%

CC/C(=C(\c1ccc(I)cc1)c1ccc(OCCN2CCCC2)cc1)c1ccccc1 [Pyrrolidino analogue of 4-iodotamoxifen, E-1-[4-(2-(N-pyrrolidino)ethoxy)phenyl]-1-(4-iodophenyl-2-phenyl-1-butene)]
activity at 1 µM (MCF-7 cells): 20 ± 2%
activity at 0.1 µM (MCF-7 cells): 27 ± 3%
activity at 0.01 µM (MCF-7 cells): 84 ± 5%
activity in MCF-7 cell growth tests (in words) (MCF-7 cells): particularly active

CC/C(=C(\c1ccccc1)c1ccc(OCCN(C)C)cc1)c1ccccc1 [Tamoxifen, Z (1,2-diphenyl)-1-[4-(2-dimethylaminoethoxy)-phenyl]-1-butene]
affinity for the estrogen receptor (ER) (estrogen receptor (ER)): relatively low affinity
activity at 1 µM (MCF-7 cells): 30 ± 1%
activity at 0.1 µM (MCF-7 cells): 52 ± 1%

CC/C(=C(/c1ccc(Br)cc1)c1ccc(OCCN(C)C)cc1)c1ccccc1 [Z isomer of 4-bromotamoxifen, reference compound]
activity at 1 µM (MCF-7 cells): 174 ± 8%
activity at 0.1 µM (MCF-7 cells): 163 ± 4%
activity at 0.01 µM (MCF-7 cells): 110 ± 3%

CC/C(=C(/c1ccc(I)cc1)c1ccc(OCCN(C)C)cc1)c1ccccc1 [Z isomer of 4-iodotamoxifen, reference compound]
activity at 1 µM (MCF-7 cells): 120 ± 3%
activity at 0.1 µM (MCF-7 cells): 126 ± 6%
activity at 0.01 µM (MCF-7 cells): 99 ± 13%

CC/C(=C(\c1ccc(Cl)cc1)c1ccc(OCCN(C)C)cc1)c1ccccc1 [chloro]
anti-estrogenic activity, in vivo rat uterine weight tests (rat uterine weight): lower anti-estrogenic activity than tamoxifen
potency compared with tamoxifen (report by K. E. Allen et al.) [6]: of no greater potency than tamoxifen
estrogen receptor affinity in vitro, compared with tamoxifen (estrogen receptor [7]): approximately equiactive

CC/C(=C(\c1ccc(F)cc1)c1ccc(OCCN(C)C)cc1)c1ccccc1 [fluoro]
anti-estrogenic activity, in vivo rat uterine weight tests (rat uterine weight): lower anti-estrogenic activity than tamoxifen
potency compared with tamoxifen (report by K. E. Allen et al.) [6]: of no greater potency than tamoxifen
estrogen receptor affinity in vitro, compared with tamoxifen (estrogen receptor [7]): approximately equiactive

CC/C(=C(\c1ccc(C)cc1)c1ccc(OCCN(C)C)cc1)c1ccccc1 [methyl]
anti-estrogenic activity, in vivo rat uterine weight tests (rat uterine weight): lower anti-estrogenic activity than tamoxifen
estrogen receptor affinity in vitro, compared with tamoxifen (estrogen receptor [7]): approximately equiactive
